Assay results taken from BindingDB's records for doi:10.1016/s1074-5521(98)90086-2 (Duke University, 1998).
pKi: −log10 of the molar value.

Molecular target: 1-aminocyclopropane-1-carboxylate oxidase 1 (Malus domestica, UniProt Q00985)
Assay: Inhibition Assay
Description: Enzyme inhibition assay using ethylene-forming enzyme (EFE).

Chain of 1-aminocyclopropane-1-carboxylate oxidase 1 (Q00985 whole entry): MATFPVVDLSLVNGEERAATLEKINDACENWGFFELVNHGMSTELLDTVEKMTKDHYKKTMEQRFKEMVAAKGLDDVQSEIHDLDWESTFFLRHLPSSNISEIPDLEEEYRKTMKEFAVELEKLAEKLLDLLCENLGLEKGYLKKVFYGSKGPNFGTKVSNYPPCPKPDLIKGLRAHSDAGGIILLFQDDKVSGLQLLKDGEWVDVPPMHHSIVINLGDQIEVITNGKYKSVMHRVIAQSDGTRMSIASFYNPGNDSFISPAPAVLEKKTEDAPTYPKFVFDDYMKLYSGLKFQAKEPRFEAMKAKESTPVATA

| Structure (SMILES) | pKi |
| --- | --- |
| CC(C)(N)C(=O)O [Aminoisobutyric (AIB)] | 3.82 |
| O=C(O)C1(NO)CCC1 [N-Hydroxyaminocyclobutanecarboxylic acid] | 4.74 |
| NC1(C(=O)O)CCC1 [Aminocyclobutanecarboxylic acid (ACBC)] | 3.66 |
| CC(C)(NO)C(=O)O [N-hydroxy aminoisobutryic acid] | 4.89 |
